According to the supplement of paper PMC13380429:

What was measured:
Conditions in all cases: 72 h
[1] = system: Caco-2; assay: cell viability relative to DMSO; higher = less toxic
[2] = system: Calu-3; assay: as above
[3] = system: HepG2; assay: as above
[4] = system: U2OS; assay: as above
[5] = system: Vero E6; assay: as above
[6] = system: Caco-2; assay: relative viability EC50 (midpoint between 100% and the lowest measured viability); higher = less toxic
[7] = system: Calu-3; assay: as above
[8] = system: HepG2; assay: as above
[9] = system: Vero E6; assay: as above
[10] = system: Caco-2; assay: drug sensitivity score (DSS) for viability; higher = more toxic; extreme values may be limits of the assay
[11] = system: Calu-3; assay: as above
[12] = system: HepG2; assay: as above
[13] = system: U2OS; assay: as above
[14] = system: Vero E6; assay: as above
[15] = system: U2OS; assay: relative viability EC50 (midpoint between 100% and the lowest measured viability); higher = less toxic

| SMILES | cell viability ([1]; 1 nM) [%] | cell viability ([1]; 10 nM) [%] | cell viability ([1]; 100 nM) [%] | cell viability ([1]; 1000 nM) [%] | cell viability ([1]; 10000 nM) [%] | cell viability ([2]; 1 nM) [%] | cell viability ([2]; 10 nM) [%] | cell viability ([2]; 100 nM) [%] | cell viability ([2]; 1000 nM) [%] | cell viability ([2]; 10000 nM) [%] | cell viability ([3]; 1 nM) [%] | cell viability ([3]; 10 nM) [%] | cell viability ([3]; 100 nM) [%] | cell viability ([3]; 1000 nM) [%] | cell viability ([3]; 10000 nM) [%] | cell viability ([4]; 1 nM) [%] | cell viability ([4]; 10 nM) [%] | cell viability ([4]; 100 nM) [%] | cell viability ([4]; 1000 nM) [%] | cell viability ([4]; 10000 nM) [%] | cell viability ([5]; 1 nM) [%] | cell viability ([5]; 10 nM) [%] | cell viability ([5]; 100 nM) [%] | cell viability ([5]; 1000 nM) [%] | cell viability ([5]; 10000 nM) [%] | relative viability EC50 [6] [µM] | relative viability EC50 [7] [µM] | relative viability EC50 [8] [µM] | relative viability EC50 [9] [µM] | drug sensitivity score [10] | drug sensitivity score [11] | drug sensitivity score [12] | drug sensitivity score [13] | drug sensitivity score [14] | relative viability EC50 [15] [µM] |
| --- | --- | --- | --- | --- | --- | --- | --- | --- | --- | --- | --- | --- | --- | --- | --- | --- | --- | --- | --- | --- | --- | --- | --- | --- | --- | --- | --- | --- | --- | --- | --- | --- | --- | --- | --- |
| OCc1ccc(-c2nn(Cc3ccccc3)c3ccccc23)o1 [YC-1] | 106 | 112 | 105 | 113 | 97.4 | 106 | 93.2 | 109 | 104 | 115 | 104 | 112 | 102 | 73.5 | 0.4 | 104 | 105 | 102 | 101 | 65.6 | 103 | 103 | 104 | 104 | 98.1 | > 10 | > 10 | 1.5 | > 10 | 0 | 0 | 9.5 | 1.5 | 0 |  |
| COCC[n+]1c2c(n(Cc3cnccn3)c1C)C(=O)c1ccccc1C2=O [YM-155] | 81.5 | 27.8 | 3.8 | 1.7 | 1.7 | 83.9 | 34.4 | 3 | 0.5 | 0.4 | 103 | 102 | 21 | 3 | 0.4 | 100 | 44.3 | 1.5 | -0.2 | -0.1 | 90.7 | 97.4 | 87.5 | 85.2 | 52 | 0.0039 | 0.0051 | 0.0587 |  | 40.1 | 39 | 27 | 37.2 | 4 | 0.0091 |
| Sc1nc2ccccc2s1 [benzo[d]thiazole-2(3H)-thione] | 96.5 | 101 | 97.1 | 103 | 94.8 | 76.6 | 91.1 | 96.7 | 96.3 | 93.1 | 99.8 | 101 | 119 | 101 | 108 | 100 | 103 | 94.8 | 102 | 97.2 |  |  |  |  |  | > 10 | > 10 | > 10 |  | 0 | 0 | 0 | 0 |  | > 10 |
| Cn1nnnc1SCC1=C(C(=O)O)N2C(=O)[C@@H](NC(=O)[C@H](OC=O)c3ccccc3)[C@H]2SC1 [cefamandole-nafate] | 97.9 | 91.8 | 98.6 | 99.4 | 100 | 90.2 | 108 | 94.4 | 94.1 | 92.6 | 85.1 | 103 | 100 | 94.3 | 93.3 |  |  |  |  |  | 104 | 104 | 96.9 | 102 | 104 | > 10 | > 10 | > 10 | > 10 | 0 | 0 | 0 |  | 0 |  |
| NC(=O)c1nc(F)cnc1O [favipiravir] | 88.5 | 91.7 | 71.8 | 84.7 | 88.6 | 100 | 105 | 98.5 | 111 | 97.7 | 102 | 98.8 | 103 | 79.1 | 118 |  |  |  |  |  | 109 | 88.4 | 101 | 96.8 | 103 | > 10 | > 10 | > 10 | > 10 | 0 | 0 | 0 |  | 0 |  |
| O=C1c2ccccc2S(=O)(=O)N1CCCCN1CCN(c2ncccn2)CC1 [ipsapirone] | 104 | 90.5 | 90.7 | 98.2 | 97.8 | 106 | 93.9 | 94.3 | 99.6 | 102 | 96.6 | 102 | 103 | 101 | 103 |  |  |  |  |  | 97 | 102 | 97.2 | 91.8 | 105 | > 10 | > 10 | > 10 | > 10 | 0 | 0 | 0 |  | 0 |  |
